Test: xn = mol fraction of the nth substance listed

CN(C)CCO + CCCCn1cc[n+](C)c1.F[P-](F)(F)(F)(F)F
viscosity [mPa·s], 101 kPa
Conditions	x1 = 0.1221	x1 = 0.2143	x1 = 0.3182	x1 = 0.4405	x1 = 0.5166	x1 = 0.605	x1 = 0.709	x1 = 0.8063	x1 = 0.9128
293.15 K	–	–	87.91	60.57	47.58	34.73	–	–	7.95
298.15 K	–	88.45	66.23	45.68	36.09	27.08	–	–	6.67
303.15 K	–	67.51	50.77	35.67	28.45	–	–	–	5.64
308.15 K	67.28	52.1	39.24	27.9	–	–	–	7.99	4.78
313.15 K	52.9	41.46	31.33	–	–	–	9.84	6.74	4.13
318.15 K	42.39	33.36	25.47	–	–	–	8.35	5.74	3.59
323.15 K	35.09	27.71	–	–	–	9.86	7.12	4.99	3.18

C=CC(=O)OC + CCCO
viscosity [mPa·s], 101.33 kPa
Conditions	308.15 K	318.15 K
x1 = 0.0501	1.354	1.107
x1 = 0.1464	1.081	0.916
x1 = 0.2331	0.9	0.782
x1 = 0.3469	0.727	0.648
x1 = 0.4436	0.622	0.561
x1 = 0.5011	0.572	0.519
x1 = 0.5436	0.541	0.492
x1 = 0.6429	0.483	0.439
x1 = 0.7442	0.441	0.397
x1 = 0.8449	0.413	0.365
x1 = 0.9424	0.396	0.343

CCCCCC + CCCO
viscosity [mPa·s]
Conditions	298.15 K	308.15 K
100 kPa, x1 = 0.0603	1.619	–
100 kPa, x1 = 0.0992	1.44	–
100 kPa, x1 = 0.2086	1.07	–
100 kPa, x1 = 0.4056	0.6737	–
100 kPa, x1 = 0.5016	0.5493	–
100 kPa, x1 = 0.5979	0.4564	–
100 kPa, x1 = 0.7014	0.3861	–
100 kPa, x1 = 0.8029	0.3467	–
100 kPa, x1 = 0.9039	0.3116	–
100 kPa, x1 = 0.9486	0.3029	–
100 kPa, x2 = 0.0679	0.3219	0.2901
100 kPa, x2 = 0.1319	0.3383	0.3038
100 kPa, x2 = 0.2357	0.3688	0.3515
100 kPa, x2 = 0.3681	0.4378	0.3916
100 kPa, x2 = 0.4848	0.5309	0.4635
100 kPa, x2 = 0.5884	0.6557	0.5724
100 kPa, x2 = 0.6811	0.8015	0.6603
100 kPa, x2 = 0.7644	0.998	0.8293
100 kPa, x2 = 0.8398	1.172	0.9551
100 kPa, x2 = 0.9083	1.427	1.177
100 kPa, x2 = 0.9708	1.762	1.427
101.33 kPa, x2 = 0.1148	0.34	–
101.33 kPa, x2 = 0.1407	0.345	–
101.33 kPa, x2 = 0.2154	0.369	–
101.33 kPa, x2 = 0.3704	0.451	–
101.33 kPa, x2 = 0.5278	0.603	–
101.33 kPa, x2 = 0.6309	0.75	–
101.33 kPa, x2 = 0.7618	1.038	–
101.33 kPa, x2 = 0.8626	1.349	–
101.33 kPa, x2 = 0.9594	1.756	–

C1CCC2=[NH+]CCCN2CC1.c1nc[n-]n1 + CCO
303.15 K, 100 kPa
Conditions	viscosity [mPa·s]
x1 = 0.1001	4.38
x1 = 0.2	9.22
x1 = 0.2999	22.01
x1 = 0.4003	47.32
x1 = 0.4989	90.79
x1 = 0.6002	174.5
x1 = 0.7008	325.1
x1 = 0.7993	472.2
x1 = 0.9002	830.6

CC(C)CO + CCO
101 kPa, x2 = 0.5
Conditions	viscosity [mPa·s]
308.15 K	1.598
313.15 K	1.479
318.15 K	1.308

CCCC=O + CCO
298.1 K, 101 kPa
Conditions	viscosity [mPa·s]
x1 = 0.1009	1.261
x1 = 0.1952	1.413
x1 = 0.3034	1.484
x1 = 0.3333	1.463
x1 = 0.3989	1.366
x1 = 0.5109	1.103
x1 = 0.5976	0.896
x1 = 0.7003	0.7
x1 = 0.7924	0.564
x1 = 0.8988	0.468

CCCCCC + CCO
298.15 K
Conditions	viscosity [mPa·s]
100 kPa, x1 = 0.0432	0.9721
100 kPa, x1 = 0.1024	0.848
100 kPa, x1 = 0.1981	0.702
100 kPa, x1 = 0.3027	0.5885
100 kPa, x1 = 0.4066	0.5026
100 kPa, x1 = 0.5031	0.439
100 kPa, x1 = 0.5999	0.3881
100 kPa, x1 = 0.7007	0.3479
100 kPa, x1 = 0.8026	0.3191
100 kPa, x1 = 0.8955	0.3025
100 kPa, x1 = 0.971	0.2965
101 kPa, x1 = 0.0149	1.046
101 kPa, x2 = 0.1035	0.3031
101 kPa, x2 = 0.1286	0.306
101 kPa, x2 = 0.2846	0.3322
101 kPa, x2 = 0.3428	0.3666
101 kPa, x2 = 0.4373	0.4133
101 kPa, x2 = 0.4727	0.4249
101 kPa, x2 = 0.533	0.4651
101 kPa, x2 = 0.5802	0.4994
101 kPa, x2 = 0.6757	0.5717
101 kPa, x2 = 0.7394	0.6511
101 kPa, x2 = 0.8689	0.8184
101 kPa, x2 = 0.8995	0.8715
101 kPa, x2 = 0.9793	1.033
101.33 kPa, x2 = 0.0569	0.315
101.33 kPa, x2 = 0.1499	0.325
101.33 kPa, x2 = 0.2731	0.363
101.33 kPa, x2 = 0.439	0.438
101.33 kPa, x2 = 0.5984	0.528
101.33 kPa, x2 = 0.7241	0.632
101.33 kPa, x2 = 0.8282	0.757
101.33 kPa, x2 = 0.9076	0.895
101.33 kPa, x2 = 0.9673	1.022

— the CheMixHub viscosity set
